Reference: patent publication US20250059574A1, “METHODS FOR PREPARING (2S,3R)-P-METHYLSULFONYLPHENYLSERINE” (TAIZHOU UNIVERSITY, priority 2023, published 2025)

Test system: transaldolase (Taizhou Lingfeng Biotechnology Co., Ltd., LF145)
Experiment: Effect of acetaldehyde on the activity of transaldolase
Format: biochemical
Conditions: reaction 10 min, 35° C., HPLC, without acetaldehyde 3.31 g/L
Description: In a 50 mL round-bottom flask, 10 mL of a reaction system contained 14 g/L p-methylsulfonylbenzaldehyde, 10.5 g/L threonine, 1 g/L pyridoxal phosphate, and 1 mL of transaldolase (Taizhou Lingfeng Biotechnology Co., Ltd., LF145), different concentrations (0, 1 g/L, 5 g/L, 10 g/L, and 20 g/L) of acetaldehyde were respectively prepared, the mixture was shaken in a water bath at 35° C. for 10 min, and the content of D-acid produced was detected by HPLC.

CC=O [acetaldehyde]
(2S,3R)-p-methylsulfonylphenylserine produced (1 g/L acetaldehyde added): 1.76 g/L | (2S,3R)-p-methylsulfonylphenylserine produced (5 g/L acetaldehyde added): 0.66 g/L | (2S,3R)-p-methylsulfonylphenylserine produced (10 g/L acetaldehyde added): 0.303 g/L | (2S,3R)-p-methylsulfonylphenylserine produced (20 g/L acetaldehyde added): 0.153 g/L
